Entries after “also recorded” stand apart in the source; their conditions may differ.

This note sets out measurements from paper PMC7402352, “Discovery of Novel Non-Steroidal Cytochrome P450 17A1 Inhibitors as Potential Prostate Cancer Agents” (International Journal of Molecular Sciences, 2020).

For one data set, the system named is DU145 cells. Briefly: Prostate cancer cell line proliferation screening (GR), DU145. In kind it is cell-based, human. How it is done: (§1) Next, we tested the effect of compounds 1a–1e on prostate cancer derived cell lines. The anti-proliferative activity was determined in vitro by adding 10 µM compound to each of three prostate cancer cell lines (LNCaP, DU145, and PC3). As an additional comparison, immortalized non-cancerous fibroblasts (BJ hTERT) were used. These cancer cell lines are considered the classic standard of PCa cell culture. Since these cell lines grew at very different rates, inhibition of growth rate (GR) was used as a metric. All compounds except 1e were non-toxic to non-cancerous cells. Compounds 1a and 1c were both cytotoxic in the PC3 cell line (Figure 3). […] DU145 cells were weakly affected by only compound 1e with growth rate inhibition more than 50% (GR < 0.5). […] We observed substantial susceptibility of PC3 cells in comparison to DU145 (see Supplementary Materials S3 for GR50 in PC3 cells). These two cell lines are similar in many respects. […]
(§2) Cells were grown to approximately 80% confluence in 150 mm culture dishes and harvested by 0.25% Trypsin/EDTA (Gibco) treatment. Released cells were counted and seeded in 384 well plates (Falcon, ref. 353962) in 30 µl media with a cell count of 1500 (BJ cells, PC-3) or and 3500 (LNCaP (Lund)) cells per well. […] The cells incubated for 24 h, after which cell counts in wells of one 384-well plate were determined as described below (time zero). […]

A further data set deals with PC3 cells. Briefly: Prostate cancer cell line proliferation screening (GR), PC3. Type of data set: cell-based, human. Conditions: 10 µM, 48 h. How it is done:
Next, we tested the effect of compounds 1a–1e on prostate cancer derived cell lines. The anti-proliferative activity was determined in vitro by adding 10 µM compound to each of three prostate cancer cell lines (LNCaP, DU145, and PC3). As an additional comparison, immortalized non-cancerous fibroblasts (BJ hTERT) were used. These cancer cell lines are considered the classic standard of PCa cell culture. Since these cell lines grew at very different rates, inhibition of growth rate (GR) was used as a metric. All compounds except 1e were non-toxic to non-cancerous cells. Compounds 1a and 1c were both cytotoxic in the PC3 cell line (Figure 3). […] DU145 cells were weakly affected by only compound 1e with growth rate inhibition more than 50% (GR < 0.5). […] We observed substantial susceptibility of PC3 cells in comparison to DU145 (see Supplementary Materials S3 for GR50 in PC3 cells). These two cell lines are similar in many respects. […] However, they differ in their origins, PC3 being derived from a lumbar vertebral metastatic prostate tumour and DU145 from a brain metastatic prostate tumour. […] By observing a uniform response of all cell lines used in the present study to 5-fluorouracil (5-FU), we were able to rule out any general cell dependent variability in chemosensitivity towards anti-metabolite treatment. Still, chemoresistance in PC3 and DU145 may be mediated by other mechanisms. While AR also functions as a tumour suppressor inhibiting cell proliferation, it is possible in AR deprived cells to observe growth inhibition when cells retain necessary coregulators. […]
as §2

The next data set deals with BJ hTERT fibroblasts. Nature of the data set: Proliferation screening in non-cancerous fibroblasts. In kind it is cell-based. Particulars: 10 µM, 48 h. How it is done:
as §1, §2

On to `c1ccc2c(c1)ccn2-c1ccc(Nc2ccncc2)cc1` [Compound 1e], for which the “Growth rate inhibition value (GR) in DU145 cells” value in the data set with DU145 cells (10 µM, 48 h) is less than 0.5. For the same molecule, in the data set with DU145 cells (Homo sapiens, DU-145, 48 h, read-out: Growth rate inhibition in DU145 cells), the inhibition at 10 µM was greater than 50%.

`c1cncc(Nc2ccc(-n3cnc4ccccc43)cc2)c1` [Compound 1c]: in the data set on PC3 cells, the “Antiproliferative response in PC3 cells (growth rate inhibition, in words)” value was “cytotoxic; also recorded: high cytotoxicity”. For the same molecule, the “Toxicity to non-cancerous cells (BJ hTERT fibroblasts)” value with BJ hTERT fibroblasts is on record as “non-toxicity”.
